Measured values published in PMC8770641, “A transcytotic transport mechanism across the tympanic membrane” (Scientific Reports, 2022).

Columns and labels:
[1] = test system: trans-TM transport of phage expressing peptide TMT-3; assay: Inhibitor studies: effect on trans-TM transport of phage expressing peptide TMT-3; assay type: in vivo, Sprague Dawley rats; details: 1 h, n = 6 ears; for Effect on trans-TM phage transport: NTHi-infected rats; for Reduction of trans-TM transport: ME contents titered
Description: Figure 5 illustrates the results of inhibitor studies.
The MEs of rats were infected with NTHi as above. 48 h later, the external ears of six anesthetized rats were injected with 50 µl of saline containing 10^10 phage expressing TM-3 peptide and up to four inhibitors. Inhibitors were applied at 5–10 times the published IC50 (see Table 1). For any combination of that affected trans-TM transport, Inhibitors were then tested individually to identify the active agent(s). Inhibitors included bafilomycin A (2 µM), brefeldin A (1 uM), carrageenan (200 mg/ml), chlorpromazine (300 µM), Dynasore (500 µM), Endosidin-2 (1 mM), Exo-1 (200 µM), Filipin (50 µg/ml), genistein (100 µM), N-ethylmaleimide (50 µM), nocodazole (300 µM), PitStop-2 (100 µM), Retro-2 (100 µM) and wortmannin (100 µM). […] Six external ears were injected with 10^9 wild-type (WT) phage without a peptide, as negative controls for phage contamination. After one hour, the external ears were extensive rinsed to remove all phage, the MEs were opened and the contents titered to quantify bacteriophage entry. Six replicates were averaged to get the mean and The standard error was calculated by dividing the standard deviation by the sample size's square root (n = 6).

tympanic membrane (TM) = details: purified phage applied to the TM of previously infected rats for one hour; ME contents titered; mean of n = 6; cited from earlier work
Text: Table 1 Sequences and ME recovery of trans-TM 12-mer peptide phage identified by two screening methods (data from Kurabi et al.[19]). Each purified phage was applied to the TM of previously infected rats for one hour (n = 6), and the ME contents then tittered and the number of phage particles recovered were averaged (mean of n = 6). Phage recovery was grouped into transport categories, which were | column: Mean recovery from ME (PFUs)

[2] = inhibitor 100 µM with TMT-3 phage
[3] = inhibitor 100 µM with 10^10 TMT-3 phage in 50 µl saline in external ear of NTHi-infected rats (48 h)
[4] = inhibitor 300 µM with TMT-3 phage

Q: With `CO/C1=C\C(C)=C\[C@@H](C)[C@@H](O)[C@@H](C)C/C(C)=C/C=C/[C@H](OC)[C@@H]([C@@H](C)[C@@H](O)[C@H](C)[C@@]2(O)C[C@@H](O)[C@H](C)[C@@H](C(C)C)O2)OC1=O` [Bafilomycin] as the compound, how does the “Effect on trans-TM phage transport” value ([1]; inhibitor 2 µM with TMT-3 phage) read?
A: The value was “no effect”.

Q: With `O=C(N/N=C/c1ccc(O)c(O)c1)c1cc2ccccc2cc1O` [Dynasore] as the compound, how does the “Effect on trans-TM phage transport” value ([1]; inhibitor 500 µM with TMT-3 phage) read?
A: Its value is “no effect”.

Q: With `COc1cc(/C=N/NC(=O)c2cccc(F)c2)cc(I)c1O` [Endosidin-2] as the compound, how does the “Reduction of trans-TM transport” value ([1]; inhibitor 1 mM with 10^10 TMT-3 phage in 50 µl saline in external ear of NTHi-infected rats (48 h)) read?
A: Its value is ~ 80%.

Q: And the “Effect on trans-TM phage transport” value ([1]; inhibitor 1 mM with TMT-3 phage)?
A: The value was “significantly reduced transport”.

Q: Which “Reduction of trans-TM transport” value ([1]; inhibitor 200 µM with 10^10 TMT-3 phage in 50 µl saline in external ear of NTHi-infected rats (48 h)) does the source give for `COC(=O)c1ccccc1NC(=O)c1ccc(F)cc1` [Exo-1] here?
A: Its value is 40%.

Q: What about the “Effect on trans-TM phage transport” value ([1]; inhibitor 200 µM with TMT-3 phage) of the same compound?
A: Its value is “significantly reduced transport”.

Q: With `CCCCC[C@@H](O)[C@H]1C(=O)O[C@H](C)[C@@H](O)/C=C/C=C/C=C/C=C/C=C(\C)[C@@H](O)C[C@H](O)C[C@H](O)C[C@H](O)C[C@H](O)C[C@H](O)C[C@@H]1O` [Filipin] as the compound, how does the “Effect on trans-TM phage transport” value ([1]; inhibitor 50 µg/ml with TMT-3 phage) read?
A: The value was “no effect”.

Q: With `CCN1C(=O)C=CC1=O` [N-ethymaleimide] as the compound, how does the “Effect on trans-TM phage transport” value ([1]; inhibitor 50 µM with TMT-3 phage) read?
A: Its value is “no effect”.

Q: With `O=C1NC(=NS(=O)(=O)c2cccc3ccccc23)S/C1=C\c1ccc(Br)cc1` [Pitstop-2] as the compound, how does the “Effect on trans-TM phage transport” value [1, 2] read?
A: The value was “Neither Pitstop-2, as illustrated in Fig. 5, nor chlorpromazine had any effect”.

Q: With `Cc1ccc(C=Nc2ccccc2C(=O)Nc2ccccc2)s1` [Retro-2] as the compound, how does the “Reduction of trans-TM transport” value [1, 3] read?
A: The value was “approximately 90%”.

Q: What about the “Effect on trans-TM phage transport” value [1, 2] of the same compound?
A: The value was “significantly reduced transport”.

Q: For `CN(C)CCCN1c2ccccc2Sc2ccc(Cl)cc21` [chlorpromazine], which “Effect on trans-TM phage transport” value [1, 4] is on record?
A: The value was “Neither Pitstop-2, as illustrated in Fig. 5, nor chlorpromazine had any effect”.

Q: Which “Effect on trans-TM phage transport” value [1, 2] does the source give for `O=c1c(-c2ccc(O)cc2)coc2cc(O)cc(O)c12` [genistein] here?
A: Its value is “no effect”.

Q: With `COC(=O)Nc1nc2ccc(C(=O)c3cccs3)cc2[nH]1` [nocodazole] as the compound, how does the “Effect on trans-TM phage transport” value [1, 4] read?
A: The value was “no effect”.

Q: Which “Reduction of trans-TM transport” value [1, 3] does the source give for `COC[C@H]1OC(=O)c2coc3c2[C@@]1(C)C1=C(C3=O)[C@@H]2CCC(=O)[C@@]2(C)C[C@H]1OC(C)=O` [wortmannin] here?
A: The value was “approximately 90%”.

Q: And the “Effect on trans-TM phage transport” value [1, 2]?
A: Its value is “significantly reduced transport”.

Q: With “ALWPPNLHAWVP [BPT-2, trans-TM 12-mer peptide expressed on M13 bacteriophage, fused through the C-terminus to the pIII protein]” as the compound, how does the “Mean recovery from ME (PFUs)” value (tympanic membrane (TM)) read?
A: The value was 210 PFUs.

Q: Which “Mean recovery from ME (PFUs)” value (tympanic membrane (TM)) does the source give for “DVGAGRWFSDNG [TMT-4, trans-TM 12-mer peptide expressed on M13 bacteriophage, fused through the C-terminus to the pIII protein]” here?
A: Its value is 5430 PFUs.

Q: Which “Mean recovery from ME (PFUs)” value (tympanic membrane (TM)) does the source give for “SADSTKTTHLTL [TMT-3, trans-TM 12-mer peptide expressed on M13 bacteriophage, fused through the C-terminus to the pIII protein]” here?
A: The value was 12,030 PFUs.

Q: For “SDDSRPIAQFAI [TMT-5, trans-TM 12-mer peptide expressed on M13 bacteriophage, fused through the C-terminus to the pIII protein]”, which “Mean recovery from ME (PFUs)” value (tympanic membrane (TM)) is on record?
A: The value was 3017 PFUs.

Q: For “SPPGKFLESLRS [TMT-1, trans-TM 12-mer peptide expressed on M13 bacteriophage, fused through the C-terminus to the pIII protein]”, which “Mean recovery from ME (PFUs)” value (tympanic membrane (TM)) is on record?
A: Its value is 610 PFUs.

Q: For “TFNPPPPQMPST [BPT-4, trans-TM 12-mer peptide expressed on M13 bacteriophage, fused through the C-terminus to the pIII protein]”, which “Mean recovery from ME (PFUs)” value (tympanic membrane (TM)) is on record?
A: Its value is 9040 PFUs.

Q: With “THPSTKVPGTPA [BPT-3, trans-TM 12-mer peptide expressed on M13 bacteriophage, fused through the C-terminus to the pIII protein]” as the compound, how does the “Mean recovery from ME (PFUs)” value (tympanic membrane (TM)) read?
A: The value was 13,050 PFUs.

Q: Which “Mean recovery from ME (PFUs)” value (tympanic membrane (TM)) does the source give for “TLSPKMPGGGYW [TMT-2, trans-TM 12-mer peptide expressed on M13 bacteriophage, fused through the C-terminus to the pIII protein]” here?
A: Its value is 3210 PFUs.

Q: For “TPMVERNYNAAD [BPT-1, trans-TM 12-mer peptide expressed on M13 bacteriophage, fused through the C-terminus to the pIII protein]”, which “Mean recovery from ME (PFUs)” value (tympanic membrane (TM)) is on record?
A: The value was 95 PFUs.

Q: With carrageenan as the compound, how does the “Effect on trans-TM phage transport” value ([1]; inhibitor 200 mg/ml with TMT-3 phage) read?
A: Its value is “no effect”.
